From PubChem BioAssay (NCI) come the findings set out here.

Values joined by “and” are separate entries in the source; they are usually repeats but may differ in a detail not shown here. Equal entries are not always repeated.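 Dose response: 5 concentrations. Exposure: 48 h. Format: 96-well plates. Endpoint: linear interpolation; highest concentration if not reached. GI50 is the concentration that inhibits growth by half. TGI: concentration producing complete growth inhibition.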

Test in all cases: growth of human tumour cells (NCI), 48 h
Assay [1] deals with 786-0 renal.
The test system of assay [2] is ACHN renal.
For assay [3], the system named is CCRF-CEM leukemia.
Assay [4] has as its system HCT-15 colon.
Assay [5] has as its system SF-539 CNS.
Assay [6] relates to SK-MEL-2 melanoma.
Assay [7] concerns SK-MEL-5 melanoma.
Assay [8] has as its system SK-OV-3 ovarian.
Assay [9] has as its system SNB-75 CNS.
Assay [10] relates to SW-620 colon.
The subject of assay [11] is DU-145 prostate.
Assay [12] relates to HS 578T breast.
Assay [13] concerns PC-3 prostate.

Turning to `c1ccc(N=c2snc(-c3ccccc3)s2)cc1`, the TGI in [1], in assay [2], in assay [3], in assay [4], in assay [5] and in assay [6] was greater than 100 µM each time. For the same compound, the TGI in [7], in assay [8], in assay [9] and in assay [10] was greater than 100 µM in each case.
As to `O=C1CC(c2ccc([N+](=O)[O-])cc2)C2(C(=O)NC(=S)NC2=O)C(c2ccc([N+](=O)[O-])cc2)C1` (stereo not given), the TGI was 87.7 µM in assay [1]; 40.4 µM in assay [2]; greater than 100 µM in assay [3]; 83.3 µM in [11]; 58 µM in assay [4]; 88.2 µM in assay [12]. The TGI in assay [13] was greater than 100 µM; in assay [5], greater than 100 µM; in [7], 99.1 µM; in [8], greater than 100 µM; in assay [9], greater than 100 µM; in assay [10], greater than 100 µM.
As for `CC(=O)CC(=O)c1cc2c(=O)oc(C)cc2oc1=O`, the TGI in [1], in assay [2], in assay [3], in [11], in assay [4] and in [13] was greater than 37.5 µM in each case. Further, the TGI in assay [5], in [6], in assay [7], in assay [8], in assay [9] and in assay [10] was greater than 37.5 µM in each case.
`Cc1oc2nc(N(C)C)n3nnnc3c2c1C`: the TGI in assay [1], in [2], in assay [3], in assay [11], in assay [4] and in assay [12] was greater than 100 µM in each case. Moreover, the TGI in [5], in [7], in assay [8], in assay [9] and in [10] was greater than 100 µM throughout.
`O=C1C(Cl)N(c2ccccc2)C1c1c[nH]c2ccccc12` (stereo not given): the TGI in assay [3], in assay [5], in assay [6], in [7], in [8] and in assay [9] was greater than 100 µM each time. This compound also had a TGI in [10] greater than 100 µM.
For `CCn1c(=O)c2c3cc(O)ccc3oc2c2ccc(O)cc21`, the TGI in [1] was greater than 100 µM; in assay [2], 66.1 µM; in [3], greater than 100 µM; in assay [11], greater than 100 µM; in [4], greater than 100 µM; in [12], greater than 100 µM. Besides, the TGI in assay [13] was greater than 100 µM; in assay [5] it was 73 µM; in assay [7] it was greater than 100 µM; in assay [8] it was greater than 100 µM; in assay [9], greater than 100 µM; in assay [10], greater than 100 µM.
As for `C[C@@H]1C[C@H](O)[C@]2(O)O[C@@H]3C[C@@]4(C=O)[C@@H](CC=C5[C@@H]4CC[C@]4(C)[C@@H](C6=CC(=O)OC6)CC[C@]54O)C[C@H]3O[C@@H]2O1`, the TGI is 0.0821 µM in assay [2]; 0.0161 µM in assay [3]; 0.0384 µM in assay [11]; 0.194 µM in assay [4]; 0.191 µM in [12]; 0.141 µM in [5]. Moreover, the TGI was 0.133 µM in assay [7], 1.86 µM in [8], 0.916 µM in assay [9] and 1.87 µM in assay [10].
For `O=C(O[C@H](/C=C/c1ccccc1)P1(=O)N(Cc2ccccc2)[C@@H]2CCCC[C@H]2N1Cc1ccccc1)c1ccccc1`, the TGI was 42 µM in assay [1]; greater than 100 µM in [2]; greater than 100 µM in assay [3]; 11.1 µM in assay [4]; greater than 100 µM in assay [12]; greater than 100 µM in assay [13]. Besides, the TGI in assay [5] was 22.2 µM; in assay [6], 5.53 µM; in assay [7], 3.88 µM; in assay [8], greater than 100 µM; in assay [10], greater than 100 µM.
`COc1cc([C@@H]2c3cc4c(cc3C[C@H]3COC(=O)[C@@H]32)OCO4)cc(OC)c1OC`: the GI50 is 0.00386 µM in assay [3]; 0.00318 µM and 0.0109 µM in assay [4]; 0.00279 µM and 0.0062 µM in assay [5]; 0.00397 µM in [7]; 0.00431 µM in assay [8]; 0.0042 µM in assay [9]. Also, the GI50 in assay [10] is 0.00336 µM. The TGI is 21.1 µM in assay [3]; 0.00914 µM in assay [11]; greater than 2.32 µM in [4]; 0.00715 µM in assay [12]; 0.00812 µM in [5]; greater than 2.32 µM in assay [6]. Also, the TGI is greater than 7.93 µM in assay [7], greater than 50 µM in [8], greater than 13.3 µM in [9] and greater than 50 µM in assay [10].
In the case of `C[C@]12CC/C(=N\O)C=C1CC[C@@H]1[C@@H]2CC[C@]2(C)C(=N/O)/C(=C/c3cccnc3)C[C@@H]12`, the TGI was greater than 100 µM in [1]; 73.4 µM in assay [2]; greater than 100 µM in [3]; greater than 100 µM in [11]; 44.5 µM in assay [4]; 18.6 µM in assay [12]. For the same compound, the TGI in [13] is greater than 100 µM; in [5] it was 82.8 µM; in assay [6], 97.8 µM; in [8], greater than 100 µM; in [10], greater than 100 µM.
For `OCc1ccccc1C1CSCSC1`, the TGI in [2], in assay [3], in assay [4], in [5], in assay [6] and in assay [7] was greater than 100 µM each time. In addition, the TGI in assay [8], in [9] and in assay [10] was greater than 100 µM throughout.
Consider `CCN(CCCN(CC)C(=O)N[C@@H](Cc1ccccc1)C(=O)NC)C(=O)N[C@@H](Cc1ccccc1)C(=O)NC`, for which the TGI in assay [1], in assay [2], in assay [11], in assay [4], in [12] and in [13] was greater than 100 µM in each case. Further, the TGI in [5], in [6], in assay [7], in [8] and in assay [10] was greater than 100 µM throughout.
For the compound `CC(C)CCNC(=O)c1ccc(CNC(=O)/C=C/c2ccc(OCc3ccccc3)cc2)cc1`, the TGI in [1], in assay [2], in assay [3], in assay [11], in assay [4] and in assay [13] was greater than 100 µM in each case. The TGI in assay [6], in [7], in [8], in assay [9] and in assay [10] was greater than 100 µM throughout.
Regarding `CC(=O)Nc1ccc(Cl)c(Cl)c1`, the TGI in [1], in assay [2], in assay [3], in assay [4], in assay [5] and in assay [8] was greater than 100 µM throughout. Also, the TGI in assay [9] and in assay [10] was greater than 100 µM throughout.
Consider `Cc1cc2cccc(Cl)c2nc1C(=O)c1ccccc1`, for which the TGI was greater than 100 µM in [2]; greater than 100 µM in [4]; greater than 100 µM in assay [5]; greater than 100 µM in assay [6]; greater than 100 µM in [7]; 56.8 µM in [9]. Moreover, in assay [10], the TGI was greater than 100 µM.
In the case of `N#CSCc1cccc(Nc2cc(=O)[nH]c(=O)[nH]2)c1`, the TGI in assay [1] is greater than 100 µM; in [2], greater than 100 µM; in [4], greater than 100 µM; in [12] it was greater than 100 µM; in [13] it was greater than 100 µM; in assay [5] it was 98.6 µM. Further, the TGI was greater than 100 µM in [6]; 99.1 µM in [7]; greater than 100 µM in [8]; greater than 100 µM in assay [9]; greater than 100 µM in [10].
As to `C=CCCCC12CCCc3cccc(c31)NC2=O` (stereo not given), the TGI in assay [2] was 86.4 µM; in [3] it was greater than 100 µM; in assay [5], 47.4 µM; in [6], 55.5 µM; in [7], 34.2 µM; in assay [8], 45.3 µM. In [10], this compound displayed a TGI of 41.8 µM.
Take `COc1cccc(-c2nc(-c3cnccn3)n(Cc3ccccc3)n2)c1`: the TGI in assay [1], in assay [3], in assay [11], in assay [4], in assay [13] and in assay [5] was greater than 100 µM throughout. Moreover, the TGI in assay [7], in [8], in assay [9] and in assay [10] was greater than 100 µM in each case.
In the case of `COc1cc2c(cc1OC)C(=O)/C(=C/c1cc(C)c(O)c(C)c1)C2`, the TGI in assay [2], in assay [3], in assay [11], in [4], in assay [12] and in [13] was greater than 100 µM in each case. Also, the TGI in assay [5], in assay [7], in [8], in assay [9] and in assay [10] was greater than 100 µM throughout.
As for `CC(=O)/C(=C/n1c(=S)sc2ccccc21)C(=O)Nc1ccccc1C`, the TGI in assay [1], in assay [2], in [11], in assay [4], in assay [5] and in assay [6] was greater than 100 µM each time. The TGI in assay [7], in assay [8], in [9] and in assay [10] was greater than 100 µM in each case.
As to `COc1ccc(CNc2nc3ccc(C(F)(F)F)cc3nc2-c2ccccc2)cc1OC`, the TGI in assay [2], in assay [3], in assay [4], in assay [5], in assay [6] and in assay [8] was greater than 100 µM in each case. For the same compound, the TGI in [9] and in assay [10] was greater than 100 µM throughout.
For the compound `N#Cc1c2c(c(Nc3ccc(F)cc3)n3c1nc1ccccc13)CCC2`, the TGI in assay [1] worked out at 3.25 µM; in [2], 5.8 µM; in assay [3] it was 4.52 µM; in assay [11], 13.9 µM; in assay [4] it was 13.1 µM; in assay [13], 19 µM. Also, the TGI in [5] worked out at 9.56 µM; in [6], 40.6 µM; in assay [7], 8.52 µM; in [8], 26.8 µM; in assay [9], 16.7 µM; in assay [10] it was 5.71 µM.
Regarding `CN1C(=O)CN(NC(=O)C2=C(O)c3ccc(Br)cc3S(=O)(=O)N2)C1=S`, the TGI was greater than 100 µM in [1]; greater than 100 µM in [2]; 51.1 µM in [3]; greater than 100 µM in assay [11]; greater than 100 µM in assay [4]; greater than 100 µM in assay [12]. Further, the TGI in assay [13], in [6], in [7], in assay [8] and in assay [10] was greater than 100 µM each time.
For the compound `O=C1NC(=S)NC(=O)C1C(c1ccccc1[N+](=O)[O-])C1C(=O)NC(=S)NC1=O`, the TGI in assay [1], in assay [2], in assay [3], in [11], in [4] and in [12] was greater than 100 µM in each case. Also, the TGI in [13], in assay [6], in assay [7] and in assay [10] was greater than 100 µM in each case.
Consider `COC1C=CC23c4cc5c(cc4C(O)OC2CN(C)C3C1)OCO5` (stereo not given), for which the TGI in assay [1] is 11 µM; in assay [2] it was 10.1 µM; in assay [3], 7.21 µM; in [5], 3.65 µM; in assay [7], 1.65 µM; in [10], 11.6 µM.
With `CCOC(=O)c1c(N)n(-c2ccccc2)c(=S)n(-c2ccccc2)c1=O`, the TGI in [1], in [2], in [3], in [11], in assay [4] and in assay [12] was greater than 100 µM each time. Further, the TGI in assay [6], in assay [7], in assay [9] and in assay [10] was greater than 100 µM each time.
